From US20080051424A1, “Heterocyclyl-substituted nonadepsipeptides” (priority 2004, published 2008) come the findings set out here.

For experiment [1], the system named is Staphylococcus aureus 133. It counts as cell-based. As for the experimental part: (§1) Determination of the Minimum Inhibitory Concentration (MIC): The MIC is determined in the liquid dilution test in accordance with the NCCLS guidelines. Overnight cultures of Staphylococcus aureus 133, Entercococcus faecalis 27159, E. faecium 4147 and Streptococcus pneumoniae G9a are incubated with the described test substances in a 1:2 dilution series. The MIC determination is carried out with a cell count of 10^5 microorganisms per ml in Isosensitest medium (Difco, Irvine/USA), with the exception of S. pneumoniae, which is tested in BHI broth (Difco, Irvine/USA) with 10% bovine serum at a cell count of 10^6 microorganisms per ml. The cultures are incubated at 37° C. for 18-24 hours, S. pneumoniae in the presence of 10% CO2. The lowest substance concentration in each case at which no visible bacterial growth occurs any more is defined as the MIC. The MIC values are reported in μg/ml.

The subject of experiment [2] is Streptococcus pneumoniae G9a. It counts as cell-based. As for the experimental part: as §1
In experiment [3] the test system is E. faecalis ICB 27159. The class given is cell-based, Enterococcus faecalis. As for the experimental part:
as §1

Molecules are shown by their SMILES. Starred links: 1 amine or outer side, 2 acyl side, 3 side chain; linkers in the order of their positions; H or OH if unused. Positions of bridges follow the written chain, without caps; N, C: chain ends. Non-standard residues stand in square brackets, D forms with d. Residues, ends and D or L forms follow the SMILES beside them. Phe(3R-OH) = O=C([C@@H](N[*:1])[C@H](O[*:3])c1ccccc1)[*:2]; X1 = CC1CC(C)NC(NCCC[C@@H](N[*:1])C(=O)[*:2])=N1; Asn(3S-OH) = NC(=O)[C@@H](O)[C@H](N)C(=O)O; Leu(3R-OH) = CC(C)[C@@H](O)[C@H](N)C(=O)O; aThr = C[C@H](O)[C@H](N)C(=O)O

In the case of `CC[C@H](C)[C@@H]1NC(=O)[C@@H](CCCNC2=NC(C)CC(C)N2)NC(=O)[C@H](CC(C)C)NC(=O)[C@H]([C@H](O)C(C)C)NC(=O)[C@@H](NC(=O)[C@H](CC(C)C)NC(=O)[C@H](N)CC(C)C)[C@@H](c2ccccc2)OC(=O)[C@H](CO)NC(=O)[C@H]([C@H](O)C(N)=O)NC(=O)CNC(=O)[C@H]([C@H](C)O)NC1=O.O=C(O)C(F)(F)F.O=C(O)C(F)(F)F` (stereo partly drawn) [Example 3, N^ω.6,N^ω′.6-(Pentane[2,4]diyl)lysobactin] (H-[dL]L[Phe(3R-OH)][Leu(3R-OH)]L[X1]I[aThr]G[Asn(3S-OH)]S; ester 3-C), in experiment [1], the “MIC S. aureus 133” value was 0.5 µg/mL. For the same compound, the “MIC S. pneumoniae” value in experiment [2] was 0.5 µg/mL. Further, the “MIC E. faecalis ICB 27159” value in experiment [3] is 2 µg/mL.
